Assay results: patent publication US20060276464A1, “Diarylsulfone sulfonamides and use thereof” (Wyeth, priority 2005, published 2006)
Where two headings read alike, the source gives them in different places.

Target: T1, SFRP-1 (Homo sapiens, UniProt Q8N474)
T1 sequence (Q8N474 32-314): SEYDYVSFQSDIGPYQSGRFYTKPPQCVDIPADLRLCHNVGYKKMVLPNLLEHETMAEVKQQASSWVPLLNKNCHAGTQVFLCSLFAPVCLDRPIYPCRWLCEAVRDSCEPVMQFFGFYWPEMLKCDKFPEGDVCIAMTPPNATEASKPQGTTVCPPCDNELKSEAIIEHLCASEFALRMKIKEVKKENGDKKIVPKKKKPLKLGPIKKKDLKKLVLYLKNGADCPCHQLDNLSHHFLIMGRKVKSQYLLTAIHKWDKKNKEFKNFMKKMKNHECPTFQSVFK
Assay: Cell-based assay for in vitro measurement of SFRP-1/SARP2 antagonist activity (U2OS cells co-transfected with 16x TCF-tk-Luciferase reporter, Wnt and hSFRP-1);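 also: U2OS cells co-transfected with a TCF-tk luciferase reporter, a Wnt vector, hSFRP-1 or empty vector and CMV-βgal, luciferase luminescence read in cell lysates alongside βgal activity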
Settings: U2OS

[1] = read-out: Fold Induction with SFRP-1, Conc 15 μM, with SFRP-1, fold induction over SFRP-1 control, single dose
[2] = read-out: Fold Induction without SFRP-1, Conc 15 μM, without SFRP-1, single dose
[3] = read-out: Fold Induction with SFRP-1, Conc 15 μM, single dose, luciferase reporter, fold induction over SFRP-1 control, cells with SFRP-1
[4] = read-out: Fold Induction without SFRP-1, Conc 15 μM, single dose, luciferase reporter, cells without SFRP-1 (specificity control)

| Compound | fold induction at 15 µM [1] | fold induction at 15 µM [2] | fold induction at 15 µM [3] | fold induction at 15 µM [4] |
| --- | --- | --- | --- | --- |
| Cc1ccc(S(=O)(=O)c2ccccc2)c(C)c1S(=O)(=O)NCCc1ccccn1 [Example 472, 2,6-dimethyl-3-(phenylsulfonyl)-N-(2-pyridin-2-ylethyl)benzenesulfonamide] | 0.9 | 0.9 | – | – |
| Cc1ccc(S(=O)(=O)c2cc(Cl)cc(C#N)c2)cc1S(=O)(=O)NCCc1ccccn1 [Example 492, 5-[(3-chloro-5-cyanophenyl)sulfonyl]-2-methyl-N-(2-pyridin-2-ylethyl)benzenesulfonamide] | – | – | 1.6 | 1.2 |
| Cc1c(S(=O)(=O)NCCCn2ccnc2)cccc1S(=O)(=O)c1ccccc1 [Example 493, N-[3-(1H-imidazol-1-yl)propyl]-2-methyl-3-(phenylsulfonyl)benzenesulfonamide] | – | – | 1 | 1.1 |
| Cc1c(S(=O)(=O)NCCc2ccccn2)cccc1S(=O)(=O)c1ccccc1 [Example 494, 2-methyl-3-(phenylsulfonyl)-N-(2-pyridin-2-ylethyl)benzenesulfonamide] | – | – | 1 | 1.1 |
| Cc1c(S(=O)(=O)NCCN2CCOCC2)cccc1S(=O)(=O)c1ccccc1 [Example 495, 2-methyl-N-(2-morpholin-4-ylethyl)-3-(phenylsulfonyl)benzenesulfonamide] | – | – | 1.1 | 1.3 |
| CC(C)c1ccc(S(=O)(=O)c2ccc3c(c2)C(C)(C)OC(=O)N3)cc1S(=O)(=O)NCCc1ccccn1 [Example 515, 5-[(4,4-dimethyl-2-oxo-1,4-dihydro-2H-3,1-benzoxazin-6-yl)sulfonyl]-2-isopropyl-N-(2-pyridin-2-ylethyl)benzenesulfonamide] | – | – | 1.8 | 1 |
| CC(C)c1ccc(S(=O)(=O)c2ccc(F)cc2)cc1S(=O)(=O)NCCN1CCCCC1 [Example 527, 5-[(4-fluorophenyl)sulfonyl]-2-isopropyl-N-(2-piperidin-1-ylethyl)benzenesulfonamide] | – | – | 2.3 | 1.2 |
| CC(C)c1ccc(S(=O)(=O)c2ccc(F)cc2)cc1S(=O)(=O)NC1CCN(C(=S)Nc2ccc3c(c2)C(=O)OC32c3ccc(O)cc3Oc3cc(O)ccc32)CC1 [Example 538, N-(3′,6′-dihydroxy-3-oxo-3H-spiro[2-benzofuran-1,9′-xanthen]-5-yl)-4-[({5-[(4-fluorophenyl)sulfonyl]-2-isopropylphenyl}sulfonyl)amino]piperidine-1-carbothioamide] | – | – | 2.4 | 1.1 |
| CCCc1ccc(S(=O)(=O)c2ccc(F)cc2)cc1S(N)(=O)=O [Example 566, 5-[(4-Fluorophenyl)sulfonyl]-2-propylbenzenesulfonamide] | – | – | 1.5 | 1.3 |
| CC(C)c1ccc(S(=O)(=O)c2ccc(F)cc2)cc1S(=O)(=O)NCCO [Example 582, 5-[(4-fluorophenyl)sulfonyl]-N-(2-hydroxyethyl)-2-isopropylbenzenesulfonamide] | – | – | 2.6 | 1 |
| CN(C)c1ccc(S(=O)(=O)c2ccccc2)cc1S(=O)(=O)NCCc1ccccn1 [Example 601, 2-(dimethylamino)-5-(phenylsulfonyl)-N-(2-pyridin-2-ylethyl)benzenesulfonamide] | – | – | 2 | 0.9 |

Continued, values first:

| fold induction at 15 µM [1] | fold induction at 15 µM [2] | fold induction at 15 µM [3] | fold induction at 15 µM [4] | Compound |
| --- | --- | --- | --- | --- |
| 3.6 | 1.1 | – | – | COCC(=O)N1CCC(NS(=O)(=O)c2cc(S(=O)(=O)c3ccccc3)ccc2C)CC1 [Example 469, N-[1-(methoxyacetyl)piperidin-4-yl]-2-methyl-5-(phenylsulfonyl)benzenesulfonamide] |
| 1.6 | 1.1 | – | – | Cc1ccc(S(=O)(=O)c2ccccc2)cc1S(=O)(=O)NC1CCN(C(=O)Cc2ccccc2)CC1 [Example 470, 2-methyl-N-[1-(phenylacetyl)piperidin-4-yl]-5-(phenylsulfonyl)benzenesulfonamide] |
| 0.9 | 0.9 | – | – | Cc1ccc(S(=O)(=O)c2ccccc2)c(C)c1S(=O)(=O)NC1CCOCC1 [Example 473, 2,6-dimethyl-3-(phenylsulfonyl)-N-(tetrahydro-2H-pyran-4-yl)benzenesulfonamide] |
| 1.9 | 1.1 | – | – | Cc1ccc(S(=O)(=O)c2ccccc2)cc1S(=O)(=O)NC1CCN(C(=O)C2CC2)CC1 [Example 475, N-[1-(cyclopropylcarbonyl)piperidin-4-yl]-2-methyl-5-(phenylsulfonyl)benzenesulfonamide] |
| 2.1 | 1.1 | – | – | CC(=O)N1CCC(NS(=O)(=O)c2cc(S(=O)(=O)c3ccccc3)ccc2C)CC1 [Example 479, N-(1-acetylpiperidin-4-yl)-2-methyl-5-(phenylsulfonyl)benzenesulfonamide] |
| 2.9 | 1 | – | – | Cc1ccc(S(=O)(=O)c2ccccc2)cc1S(=O)(=O)NC1CCN(S(=O)(=O)c2cccc3c(N(C)C)cccc23)CC1 [Example 483, N-(1-{[5-(dimethylamino)-1-naphthyl]sulfonyl}piperidin-4-yl)-2-methyl-5-(phenylsulfonyl)benzenesulfonamide] |
| – | – | 1.1 | 1 | Cc1ccc(S(=O)(=O)c2ccccc2)cc1S(=O)(=O)NC1CCN(C(=O)NC2CCCCC2)CC1 [Example 491, N-cyclohexyl-4-({[2-methyl-5-(phenylsulfonyl)phenyl]sulfonyl}amino)piperidine-1-carboxamide] |
| – | – | 1.6 | 0.8 | Cc1ccc(S(=O)(=O)c2ccccc2)cc1S(=O)(=O)NC1CCN(C(=O)Oc2ccc(F)cc2)CC1 [Example 500, 4-fluorophenyl 4-({[2-methyl-5-(phenylsulfonyl)phenyl]sulfonyl}amino)piperidine-1-carboxylate] |
| – | – | 1.7 | 1 | CC(C)c1ccc(S(=O)(=O)c2ccc(F)cc2)cc1S(=O)(=O)NC1CC1 [Example 521, N-cyclopropyl-5-[(4-fluorophenyl)sulfonyl]-2-isopropylbenzenesulfonamide] |
| – | – | 1.4 | 0.9 | CC(C)c1ccc(S(=O)(=O)c2ccc(F)cc2)cc1S(=O)(=O)NC1CCC1 [Example 522, N-cyclobutyl-5-[(4-fluorophenyl)sulfonyl]-2-isopropylbenzenesulfonamide] |
| – | – | 1.4 | 1 | CC(C)c1ccc(S(=O)(=O)c2ccc(F)cc2)cc1S(=O)(=O)NC1CCCCC1 [Example 524, N-cyclohexyl-5-[(4-fluorophenyl)sulfonyl]-2-isopropylbenzenesulfonamide] |
| – | – | 1.4 | 1.2 | CCCc1ccc(S(=O)(=O)c2ccccc2)cc1S(N)(=O)=O [Example 557, 5-(Phenylsulfonyl)-2-propylbenzenesulfonamide] |
| – | – | 3 | 1.2 | Cc1ccc(S(=O)(=O)c2ccc(F)cc2)cc1S(=O)(=O)NC1CCNCC1 [Example 576, 5-[(4-fluorophenyl)sulfonyl]-2-methyl-N-piperidin-4-ylbenzenesulfonamide] |
